Here are results for one compound from patent US20180021360A1, “Combination Therapy Regimen For Treatment Of Selected HCV Genotypes” (JANSSEN PHARMACEUTICALS, INC., priority 2016, published 2018).

The target of one series is P-gp (Homo sapiens, UniProt P08183). The settings on record: cited from earlier work.
A short description of series [1]: PK of single agents vs fixed dose combinations, single dose in healthy volunteers (Example 13). It counts as in vivo, human. How it is done: SMV (100 mg), ODV (50 mg), and Compound (III) (800 mg) were administered as three different formulations or together as single doses in vivo to healthy volunteers. The arms of the study included: • Arm 1 (Reference Arm): Single oral doses of single agents, one SMV 100-mg capsule, one ODV 50-mg tablet as granule layered solid dispersion with copovidone and poloxamers, and two Compound (III) 400-mg tablets, administered together. • Arm 2: Single oral dose of fixed dose combination (FDC02): SMV 100 mg+ODV 50 mg as a spray dried solid dispersion with HPMC-AS L in a ratio ODV/HPMC-AS L 1/1 w/w+Compound (III) 800 mg • Arm 3: Single oral dose of fixed dose combination (FDC04): SMV 100 mg+ODV 50 mg as a spray dried solid dispersion with HPMC-AS L in a ratio ODV/HPMC-AS L 1/3 w/w+Compound (III) 800 mg • Arm 4: Single oral dose of fixed dose combination (FDC01): SMV 100 mg+ODV 50 mg as a spray dried solid dispersion with copovidone and poloxamers+Compound (III) 800 mg
PK parameters, including Cmax, tmax, AUClast, and AUC∞ were measured for Compound (III), ODV, SMV, and metabolites Compound A-1 and Compound A-3 for each Arm of the study. Arms that included fixed dose combinations (FDC) (Arm 2, Arm 3, and Arm 4) were then compared to a single oral dose (Arm 1, the reference Arm). Table 9, Table 10, Table 11, Table 12 and Table 13 display relevant PK parameters and FIG. 9, FIG. 10, FIG. 11, FIG. 12, and FIG. 13 depict the plasma concentration over time of SMV, ODV, Compound A-1, and Compound A-3 for each Arm of the study.

A further series addresses T1, BCRP (Homo sapiens, UniProt Q9UNQ0).
T1 sequence (Q9UNQ0 1-655): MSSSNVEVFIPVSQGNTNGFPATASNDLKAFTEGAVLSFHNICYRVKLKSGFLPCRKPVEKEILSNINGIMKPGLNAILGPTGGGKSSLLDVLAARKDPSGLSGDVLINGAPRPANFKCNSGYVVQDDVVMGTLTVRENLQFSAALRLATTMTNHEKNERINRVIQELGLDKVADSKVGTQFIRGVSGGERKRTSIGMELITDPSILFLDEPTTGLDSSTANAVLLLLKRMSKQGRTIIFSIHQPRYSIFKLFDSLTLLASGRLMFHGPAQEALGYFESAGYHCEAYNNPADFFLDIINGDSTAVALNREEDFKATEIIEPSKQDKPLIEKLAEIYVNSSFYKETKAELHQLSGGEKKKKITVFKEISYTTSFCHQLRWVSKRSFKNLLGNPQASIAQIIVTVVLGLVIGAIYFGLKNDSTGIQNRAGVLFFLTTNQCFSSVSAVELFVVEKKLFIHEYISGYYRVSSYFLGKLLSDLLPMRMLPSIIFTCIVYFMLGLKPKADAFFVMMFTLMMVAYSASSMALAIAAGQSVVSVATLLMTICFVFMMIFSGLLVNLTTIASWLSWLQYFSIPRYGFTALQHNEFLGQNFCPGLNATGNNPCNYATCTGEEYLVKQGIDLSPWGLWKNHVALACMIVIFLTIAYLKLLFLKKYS
Particulars: cited from earlier work.

Sequence of P-gp (P08183 whole entry): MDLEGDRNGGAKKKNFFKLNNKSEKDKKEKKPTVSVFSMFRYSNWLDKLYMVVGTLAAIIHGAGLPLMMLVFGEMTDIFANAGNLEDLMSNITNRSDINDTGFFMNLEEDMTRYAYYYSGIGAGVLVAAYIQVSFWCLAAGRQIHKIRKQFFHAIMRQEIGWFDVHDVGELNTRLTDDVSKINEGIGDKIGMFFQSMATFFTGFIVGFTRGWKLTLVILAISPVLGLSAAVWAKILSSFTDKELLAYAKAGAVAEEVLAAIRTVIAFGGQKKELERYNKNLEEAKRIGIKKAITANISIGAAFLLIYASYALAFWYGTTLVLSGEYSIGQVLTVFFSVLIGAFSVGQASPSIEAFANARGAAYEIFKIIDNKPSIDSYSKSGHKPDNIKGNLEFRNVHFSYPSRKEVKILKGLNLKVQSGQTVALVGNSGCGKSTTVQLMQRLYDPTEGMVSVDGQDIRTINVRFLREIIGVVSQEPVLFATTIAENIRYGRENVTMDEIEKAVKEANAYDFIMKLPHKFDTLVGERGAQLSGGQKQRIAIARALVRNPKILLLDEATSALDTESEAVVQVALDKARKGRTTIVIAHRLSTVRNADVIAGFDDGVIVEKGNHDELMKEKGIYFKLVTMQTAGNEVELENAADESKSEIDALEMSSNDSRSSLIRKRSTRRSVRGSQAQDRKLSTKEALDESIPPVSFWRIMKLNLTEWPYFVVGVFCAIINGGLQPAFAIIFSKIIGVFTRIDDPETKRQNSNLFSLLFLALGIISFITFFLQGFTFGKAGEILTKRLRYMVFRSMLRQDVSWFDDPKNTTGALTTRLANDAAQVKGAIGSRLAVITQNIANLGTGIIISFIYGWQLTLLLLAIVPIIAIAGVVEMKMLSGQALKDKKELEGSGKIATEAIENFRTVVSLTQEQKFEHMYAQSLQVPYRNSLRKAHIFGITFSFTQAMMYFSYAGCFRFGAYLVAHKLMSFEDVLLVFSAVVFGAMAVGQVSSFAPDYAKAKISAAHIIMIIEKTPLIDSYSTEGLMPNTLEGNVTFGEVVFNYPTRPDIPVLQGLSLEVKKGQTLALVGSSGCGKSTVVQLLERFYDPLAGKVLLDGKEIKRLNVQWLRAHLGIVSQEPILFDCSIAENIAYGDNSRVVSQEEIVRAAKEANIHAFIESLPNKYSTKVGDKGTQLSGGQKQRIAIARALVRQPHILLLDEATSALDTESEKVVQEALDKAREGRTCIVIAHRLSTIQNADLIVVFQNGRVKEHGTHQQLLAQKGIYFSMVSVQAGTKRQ

With `COC(=O)N[C@H](C(=O)N1[C@H](c2nc3cc(-c4cc5ccc4CCc4ccc(c(-c6ccc7[nH]c([C@@H]8C[C@@H]9CCCC[C@@H]9N8C(=O)[C@@H](NC(=O)OC)C(C)C)nc7c6)c4)CC5)ccc3[nH]2)C[C@@H]2CCCC[C@@H]21)C(C)C` [Odalasvir, methyl [(2,)-1-[(2S,3aS,7aS)-2-[6-[11-[2-[(2S,3aS,7aS)-1-[(2S)-2-[(methoxycarbonyl)amino]-3-methylbutanoyl]octahydro-1H-indol-2-yl]-1H-benzimidazol-6-yl]tricyclo[8.2.2.2^4,7]hexadeca-1(12),4,6,10,13,15-hexaen-5-yl]-1H-benzimidazol-2-yl]octahydro-1H-indol-1-yl]-3-methyl-1-oxobutan-2-yl]carbamate], the “in vitro inhibition of P-gp” value at P-gp is “moderate inhibition”. Also, the t1/2term was determined as 168.6 ± 21.7 h in series [1] (Arm 1 (reference): single agents, mean ± SD); 169.0 ± 24.5 h in series [1] (Arm 2: FDC02, mean ± SD); 176.0 ± 29.5 h in series [1] (Arm 3: FDC04, mean ± SD); 167.8 ± 22.4 h in series [1] (Arm 4: FDC01, mean ± SD). In addition, the “Least Square Means Ratio, Cmax” value in series [1] (Arm 2 (FDC02) vs reference) is listed as 81.00%. For the same compound, the “AUC∞” value in series [1] (Arm 2: FDC02, mean ± SD) was determined as 7040 ± 2130 ng·h/mL. The Cmax in series [1] (Arm 4: FDC01 (SMV 100 mg + ODV 50 mg spray dried with copovidone and poloxamers + Compound (III) 800 mg), mean ± SD) amounted to 298 ± 81.7 ng/mL. The AUClast in series [1] (Arm 4: FDC01, mean ± SD) was 11127 ± 3354 ng·h/mL. The “in vitro inhibition of BCRP” value on BCRP is recorded as “no inhibition”.
